For this test, the target named is human Somatostatin 4 receptor (SSTR4) (Homo sapiens (Human), UniProt P31391). Briefly: cAMP assay with human somatostatin 4 receptor (hSSTR4 expressing H4 cells). It is filed as cell-based. As to conditions: cAMP assay, read-out: SSTR4 agonism EC50. The procedure: Camp Assay Method Description for cAMP Assay with Human Somatostatin 4 Receptor
The activation of the SSTR4 receptor (Gi coupled) causes an inhibition of intracellular cAMP after stimulation with Forskolin, which can be quantifiable by use of a suitable assay Kit and an adequate plate reader. This technique is used to characterize pharmacological effects of the SSTR4 receptor agonists by use of hSSTR4 expressing H4 cells.
Compounds are dissolved and diluted in DMSO. The final test solution contains 1% DMSO. […] Cells are centrifuged and suspended in assay buffer (incl. 1:100 diluted Alexa antibody).
For the assay 5 μl of a cell suspension (approximately 5000 cells/well)—incl. Alexa antibody (diluted 1:100) are added into a 384 well MTP microtitre plate excepting one row or column (depending on the plate layout), which is reserved for the standard curve. Then 2 μl of compound sample is added as concentration response curve (e.g. 1e-5 M to 6e-10 M), usually in triplicates. Each assay contains incubations with vehicle controls instead of compound as controls for non-inhibited cAMP generation (100% CTL; ‘high values’) and incubations with 1 μM Somatosatin as controls for full inhibition and background (0% CTL; […]). […] Then the plates are shaken briefly and incubated for 60 min at room temperature. After 60 min 10 μl of the detection mix is added into all wells followed by an additional incubation period of 1 h. The plates are read in a suitable plate reader.
From this ratio, cAMP concentrations are calculated from standard curve and the EC50 is estimated by least square curve fit program.
The EC50 values were obtained with the aid of the above described cAMP ASSAY.

The EC50 is the concentration giving half of the maximal effect.

Chain of human Somatostatin 4 receptor (SSTR4) (P31391 whole entry): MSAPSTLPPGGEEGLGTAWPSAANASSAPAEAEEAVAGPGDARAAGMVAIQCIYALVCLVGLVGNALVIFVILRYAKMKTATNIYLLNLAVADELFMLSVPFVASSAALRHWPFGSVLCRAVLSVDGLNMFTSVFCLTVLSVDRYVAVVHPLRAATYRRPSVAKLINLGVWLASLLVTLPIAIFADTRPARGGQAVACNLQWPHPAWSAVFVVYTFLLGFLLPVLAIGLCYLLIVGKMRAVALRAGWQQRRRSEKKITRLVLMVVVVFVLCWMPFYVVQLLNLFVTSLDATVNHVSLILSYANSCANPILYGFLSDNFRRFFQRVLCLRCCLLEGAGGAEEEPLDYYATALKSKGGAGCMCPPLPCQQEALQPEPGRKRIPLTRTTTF

Take `CC(NC(=O)[C@H]1[C@@H]2CNC[C@@H]21)c1nn(C)c2ccccc12` (single isomer, unassigned) [Example 112]: the EC50 is 119 nM.
As for `CC(NC(=O)[C@H]1[C@@H]2CNC[C@@H]21)c1nn(C)c2c(Cl)cccc12` (single isomer, unassigned) [Example 115], the figure is 21.3 nM; as for `Cc1cccc2c(C(C)NC(=O)[C@H]3[C@@H]4CNC[C@@H]43)nn(C)c12` (single isomer, unassigned) [Example 118], 39.2 nM.
As for `Cc1nc(C(C)NC(=O)[C@H]2[C@@H]3CNC[C@@H]32)c2ccccc2n1` (single isomer, unassigned) [Example 163], the figure is 338 nM.
Next, `Cc1nc(C(C)NC(=O)[C@H]2[C@@H]3CNC[C@@H]32)c2ccccc2n1` (single isomer, unassigned) [Example 164]: 6660 nM; `Cc1nc(C(C)NC(=O)[C@H]2[C@@H]3CNC[C@@H]32)c2cccc(C)c2n1` (single isomer, unassigned) [Example 165]: 88.8 nM; `Cc1nc(C(C)NC(=O)[C@H]2[C@@H]3CNC[C@@H]32)c2cccc(C)c2n1` (single isomer, unassigned) [Example 166]: 1400 nM.
As to `CC(C)(NC(=O)[C@H]1[C@@H]2CNC[C@@H]21)C1COc2ccccc21` (single isomer, unassigned) [Example 174], the EC50 worked out at 100 nM.
Next, `CC(C)(NC(=O)[C@H]1[C@@H]2CNC[C@@H]21)C1COc2ccccc21` (single isomer, unassigned) [Example 175]: 1000 nM.
Next, `CC(C)(NC(=O)[C@H]1[C@@H]2CNC[C@@H]21)C1CCOc2ccccc21` (single isomer, unassigned) [Example 179]: 10.3 nM; `CC(C)(NC(=O)[C@H]1[C@@H]2CNC[C@@H]21)C1CCOc2ccccc21` (single isomer, unassigned) [Example 180]: 400 nM.
As for `Cc1cc(I)ccc1OCC1(NC(=O)[C@H]2[C@@H]3CNC[C@@H]32)CC1` [Example 1], the figure is 238 nM.
Regarding `CC(C)(NC(=O)[C@H]1[C@@H]2CNC[C@@H]21)c1ccccc1` [Example 3], the EC50 was determined as 179 nM.
Take `CC(C)(CCc1ccccc1)NC(=O)[C@H]1[C@@H]2CNC[C@@H]21` [Example 4]: the EC50 is 315 nM.
Next, `CC(C)(Cc1cccc2ccccc12)NC(=O)[C@H]1[C@@H]2CNC[C@@H]21` [Example 5]: 26.6 nM.
Take `Cc1ccccc1CC(C)(C)NC(=O)[C@H]1[C@@H]2CNC[C@@H]21` [Example 6]: the EC50 worked out at 59.6 nM.
As for `CC(C)(NC(=O)[C@H]1[C@@H]2CNC[C@@H]21)C1CCCCC1` [Example 7], the figure is 435 nM; as for `O=C(NC1(c2ccccc2)CCCCC1)[C@H]1[C@@H]2CNC[C@@H]21` [Example 9], 536 nM.
Next, `Cc1cc(Br)ccc1OCC(C)(C)NC(=O)[C@H]1[C@@H]2CNC[C@@H]21` [Example 14]: 7.2 nM; `Cc1cc(C(F)(F)F)ccc1OCC(C)(C)NC(=O)[C@H]1[C@@H]2CNC[C@@H]21` [Example 19]: 141 nM.
Next, `CC(C)(NC(=O)[C@H]1[C@@H]2CNC[C@@H]21)c1cc2ccccc2cn1` [Example 26]: 46.5 nM; `Cc1csc(C(C)(C)NC(=O)[C@H]2[C@@H]3CNC[C@@H]32)n1` [Example 27]: 285 nM; `CC(C)(CCc1ncccc1C(F)(F)F)NC(=O)[C@H]1[C@@H]2CNC[C@@H]21` [Example 29]: 60.4 nM.
For the molecule `Cc1cccnc1CCC(C)(C)NC(=O)[C@H]1[C@@H]2CNC[C@@H]21` [Example 30], the EC50 turned out to be 202 nM.
As for `CC(C)(NC(=O)[C@H]1[C@@H]2CNC[C@@H]21)c1ccc2ccccc2n1` [Example 34], the figure is 41.1 nM; as for `Cn1nc(C(C)(C)NC(=O)[C@H]2[C@@H]3CNC[C@@H]32)c2ncccc21` [Example 35], 376 nM.
In the case of `CC(C)(COc1ccncc1C(F)(F)F)NC(=O)[C@H]1[C@@H]2CNC[C@@H]21` [Example 36], the EC50 amounted to 21.8 nM.
For the molecule `Cc1nccnc1OCC(C)(C)NC(=O)[C@H]1[C@@H]2CNC[C@@H]21` [Example 37], the EC50 was found to be 162 nM.
Next, `CC(C)(COc1ccccc1F)NC(=O)[C@H]1[C@@H]2CNC[C@@H]21` [Example 41]: 194 nM; `CC(C)(NC(=O)[C@H]1[C@@H]2CNC[C@@H]21)c1cnc2cccnn12` [Example 46]: 241 nM; `CC(C)(NC(=O)[C@H]1[C@@H]2CNC[C@@H]21)c1nn(Cc2ccccc2)c2ccccc12` [Example 50]: 8.4 nM.
Next, `CC(C)(COc1ccnc2ccccc12)NC(=O)[C@H]1[C@@H]2CNC[C@@H]21` [Example 54]: 66.6 nM.
With `CC(C)(COc1cncc2ccccc12)NC(=O)[C@H]1[C@@H]2CNC[C@@H]21` [Example 55], the EC50 was determined as 30.9 nM.
As for `CC(C)(COc1cccn2ccnc12)NC(=O)[C@H]1[C@@H]2CNC[C@@H]21` [Example 61], the figure is 1090 nM; as for `CC(C)(COc1noc2ccccc12)NC(=O)[C@H]1[C@@H]2CNC[C@@H]21` [Example 62], 207 nM; as for `Cc1cncnc1OCC(C)(C)NC(=O)[C@H]1[C@@H]2CNC[C@@H]21` [Example 66], 142 nM.
For `CC(C)(NC(=O)[C@H]1[C@@H]2CNC[C@@H]21)c1ncc2ccncn12` [Example 69], the EC50 was determined as 749 nM.
As for `Cc1ccccc1OCC(C)(C)NC(=O)[C@H]1[C@@H]2CN(C(C)C)C[C@@H]21` [Example 72], the figure is 362 nM.
As for `Cn1nc(C(C)(C)NC(=O)[C@H]2[C@@H]3CNC[C@@H]32)c2cc(F)ccc21` [Example 73], the figure is 11.9 nM.
Next, `CC(C)(NC(=O)[C@H]1[C@@H]2CNC[C@@H]21)c1c(Cl)nc2sccn12` [Example 81]: 143 nM; `CC(C)(NC(=O)[C@H]1[C@@H]2CNC[C@@H]21)c1cn2ccccc2n1` [Example 84]: 840 nM.
In the case of `CC(C)(NC(=O)[C@H]1[C@@H]2CNC[C@@H]21)c1ccn2ccnc2c1` [Example 85], the EC50 was 144 nM.
Consider `CC(C)(NC(=O)[C@H]1[C@@H]2CNC[C@@H]21)c1ccc2nccn2c1` [Example 86], for which the EC50 was determined as 93.9 nM.
Regarding `CC(C)(NC(=O)[C@H]1[C@@H]2CNC[C@@H]21)c1nn(CC(F)(F)F)c2ccccc12` [Example 96], the EC50 stood at 9.2 nM.
As for `CC(C)(NC(=O)[C@H]1[C@@H]2CNC[C@@H]21)c1nn(CC2CC2)c2ccccc12` [Example 97], the figure is 12.4 nM; as for `CC(C)n1nc(C(C)(C)NC(=O)[C@H]2[C@@H]3CNC[C@@H]32)c2ccccc21` [Example 98], 19.9 nM; as for `CC(C)(NC(=O)[C@H]1[C@@H]2CNC[C@@H]21)c1nn(C2CCOCC2)c2ccccc12` [Example 99], 102 nM.
As for `Cc1cccc2c(C(C)NC(=O)[C@H]3[C@@H]4CNC[C@@H]43)nn(C)c12` (stereo partly drawn) [Example 117], the figure is 6.1 nM; as for `CC(C)(NC(=O)[C@H]1[C@@H]2CNC[C@@H]21)c1ncc2ccc(C(F)(F)F)cn12` [Example 121], 61.5 nM.
As for `CC(C)(NC(=O)[C@H]1[C@@H]2CNC[C@@H]21)c1ncc2cc(C(F)(F)F)ccn12` [Example 122], the figure is 1340 nM.
`CC(C)(NC(=O)[C@H]1[C@@H]2CNC[C@@H]21)c1nc(Br)c2ccccn12` [Example 123]: the EC50 was 1.5 nM.
Turning to `CC(C)(NC(=O)[C@H]1[C@@H]2CNC[C@@H]21)c1ncc2c(C(F)(F)F)cccn12` [Example 124], the EC50 stood at 15.4 nM.
As for `CC(C)(NC(=O)[C@H]1[C@@H]2CNC[C@@H]21)c1nc(C2=CCOCC2)c2ccccn12` [Example 125], the figure is 97.6 nM; as for `CC(C)(NC(=O)[C@H]1[C@@H]2CNC[C@@H]21)c1nc(C(F)(F)F)c2c(F)cccn12` [Example 127], 31.9 nM; as for `CC(C)(NC(=O)[C@H]1[C@@H]2CNC[C@@H]21)c1ncc2cnccn12` [Example 131], 484 nM.
As for `CC(C)(NC(=O)[C@H]1[C@@H]2CNC[C@@H]21)c1nc(C#N)c2ccccn12` [Example 132], the figure is 72.3 nM.
In the case of `CC(C)(NC(=O)[C@H]1[C@@H]2CNC[C@@H]21)c1ncc2cccc(F)n12` [Example 135], the EC50 came out at 7.6 nM.
As for `CC(C)(NC(=O)[C@H]1[C@@H]2CNC[C@@H]21)c1ncc2ccc(F)cn12` [Example 136], the figure is 6.4 nM; as for `Cc1cc2c(C)nccc2c(C(C)(C)NC(=O)[C@H]2[C@@H]3CNC[C@@H]32)n1` [Example 144], 47.7 nM; as for `Cc1nc2ccccn2c1C(C)(C)NC(=O)[C@H]1[C@@H]2CNC[C@@H]21` [Example 147], 13.3 nM.

Source of the values: US9789082B2, “Somatostatin receptor subtype 4 (SSTR4) agonists” (Centrexion Therapeutics Corporation, priority 2013, dated 2017).
